# Experimental data as given in publication PMC7114351 (Antiviral Research, 2008).
# Values joined by “and” are separate entries in the source; they are usually repeats but may differ in a detail not shown here. Identical values can stand only once. “Also recorded” adds a separate entry of the source. Like-named read-outs stand apart in the source and are kept apart here.
# Legend:
# [1] = tested on: recombinant VACV expressing luciferase; experiment: microbe, parasite or virus in culture; format: cell-based, vaccinia virus; conditions: for IC50: Orthopoxvirus vaccinia, read-out: Luc IC50 ± SD
# VACV proteins = format: cell-based, vaccinia virus
# recombinant VACV = experiment: microbe, parasite or virus in culture; format: cell-based, vaccinia virus; conditions: for IC50 / IC90: Orthopoxvirus vaccinia; for IC50: read-out: Titer IC50 ± SD; for IC90: read-out: Titer IC90 ± SD
# VACV genomic DNA = format: cell-based, vaccinia virus
# WT VACV (WR) = experiment: microbe, parasite or virus in culture; format: cell-based; conditions: Orthopoxvirus vaccinia; for IC50: read-out: Titer IC50 ± SD; for IC90: read-out: Titer IC90 ± SD
# Cytotoxicity, MTT assay [2] = format: cell-based, human; conditions: human, HeLa G cells
# Cytotoxicity, MTT assay [3] = format: cell-based; conditions: human, Jurkat cells
# Cytotoxicity, MTT assay [4] = format: cell-based, African green monkey; conditions: African green monkey, BSC-40 cells
# WT VACV = format: cell-based, vaccinia virus
# Cytotoxicity, MTT assay [5] = format: cell-based, mouse; conditions: mouse, L929 cells
# VACVs (strain WR) = conditions: two different VACVs (strain WR), ref Becker et al., 2008, cited from earlier work
# VACV (strain WR) = conditions: HFF cells, ref Quenelle et al., 2007; cited from earlier work
# [6] = tested on: VACV late promoter p4b (Luc L); format: cell-based, vaccinia virus
# HeLa G cells = experiment: Cytotoxicity, MTT assay; format: cell-based, human
# BSC-40 cells = experiment: Cytotoxicity, MTT assay; format: cell-based, African green monkey
# VACV = format: cell-based, vaccinia virus
# [7] = tested on: luciferase expressed by Luc E/L or Luc L; format: cell-based, vaccinia virus
# [8] = tested on: cell lines of the antiviral assays; experiment: Cytotoxicity in conditions of the antiviral assays; conditions: up to 1 mM; higher cell density, 2% serum, 24 h incubation
# [9] = tested on: VACV early/late promoter p7.5 (Luc E/L); format: cell-based, vaccinia virus
# L929 cells = experiment: Cytotoxicity, MTT assay; format: cell-based, mouse
smiles,measurement,setting,value
"O=C1O[C@H]([C@@H](O)CO)C(O)=C1O [L-ascorbic acid, L-Ascorbic acid]","luciferase activity, % of the mock-treated controls",[1],120%
"C=C(CC)C(=O)c1ccc(OCC(=O)O)c(Cl)c1Cl [Ethacrynic acid, ethacrynic acid]","VACV protein levels, western blot",VACV proteins,did not seem to decrease protein levels
same,inhibition of VACV growth,recombinant VACV,1 logs and 2 logs
same,IC50,recombinant VACV; 24 h,12.2 ± 0.3 µM
same,IC90,recombinant VACV; 24 h,40.9 ± 1.4 µM
same,IC50,"recombinant VACV; BSC-40, 24 h",11.9 ± 0.5 µM
same,IC90,"recombinant VACV; BSC-40, 24 h",30.9 ± 0.8 µM
same,IC50,"recombinant VACV; HeLa, 24 h",1.6 ± 0.1 µM
same,IC90,"recombinant VACV; HeLa, 24 h",5.4 ± 0.3 µM
same,IC50,"recombinant VACV; Jurkat, 24 h",9.5 ± 2.4 µM
same,IC90,"recombinant VACV; Jurkat, 24 h",30.9 ± 10 µM
same,IC50,"recombinant VACV; L929, 24 h",19.8 ± 2.4 µM
same,IC90,"recombinant VACV; L929, 24 h",80.2 ± 30.9 µM
same,levels of VACV genomic DNA,VACV genomic DNA,not changed
same,IC50,WT VACV (WR); 24 h,9.5 ± 2.6 µM
same,IC90,WT VACV (WR); 24 h,47.8 ± 7.9 µM
same,IC50,"WT VACV (WR); BSC-40, 24 h",9.2 ± 1 µM
same,IC90,"WT VACV (WR); BSC-40, 24 h",29.4 ± 1 µM
same,IC90,"WT VACV (WR); HeLa, 24 h",18.8 ± 0.6 µM
same,IC50,"WT VACV (WR); Jurkat, 24 h",13.8 ± 4.7 µM
same,IC90,"WT VACV (WR); Jurkat, 24 h",42.9 ± 13.4 µM
same,IC50,"WT VACV (WR); L929, 24 h",19.3 ± 3.9 µM
same,IC90,"WT VACV (WR); L929, 24 h",61.3 ± 16.3 µM
same,CC50 at 2 days,"Cytotoxicity, MTT assay [2]",128 µM
same,CC50 at 2 days,"Cytotoxicity, MTT assay [3]",35 µM
same,CC50 at 2 days,"Cytotoxicity, MTT assay [4]",292 µM
same,IC50,[1]; 24 h,18.3 ± 3.7 µM
same,IC50,"[1]; BSC-40, 24 h",35.3 ± 7 µM
same,IC50,"[1]; HeLa, 24 h",2.6 ± 0.6 µM
same,IC50,"[1]; L929, 24 h",26.5 ± 1.9 µM
same,number of plaques,WT VACV,reduced the number of plaques
same,CC50 at 2 days,"Cytotoxicity, MTT assay [5]",224 µM
Nc1ccn(C[C@@H](CO)OCP(=O)(O)O)c(=O)n1 [cidofovir],IC50,VACVs (strain WR); BSC-40 cells,< 50 µM
same,IC50,VACVs (strain WR); Vero cells,54 µM and 62 µM
same,IC50,VACV (strain WR),33 µM
CCCCCCCCCCCCCCCCOCCCOP(=O)(O)CO[C@H](CO)Cn1ccc(N)nc1=O [CMX001],IC50,VACV (strain WR),0.13 µM
O[C@@H](CS)[C@@H](O)CS (racemic) [dithiothreitol],"luciferase activity, % of the mock-treated controls",[1],140%
"Nc1ccn([C@@H]2O[C@H](CO)[C@@H](O)[C@@H]2O)c(=O)n1 [AraC, cytosine arabinoside]","activity of luciferase expressed by Luc L, % of the mock-treated controls grown in the absence of AraC",[6],≤ 0.05%
O=C(NN1C(=O)[C@@H]2[C@@H]3C=C[C@@H]([C@H]4C[C@@H]34)[C@@H]2C1=O)c1ccc(C(F)(F)F)cc1 [ST-246],IC50,VACV (strain WR),0.1 µM
"O=C(O)CCCCC1CCSS1 (stereo not drawn) [Lipoic acid, α-lipoic acid]","VACV protein levels, western blot",VACV proteins,did not induce any major changes; also recorded: decreased the protein expression slightly
same,effect on activity of Luc L,[6],dose-dependent inhibitory effect
same,effect on activity of luciferase expressed by Luc L,[6],neither EA nor LA affected this result
same,IC50,"recombinant VACV; BSC-40, 24 h",409 ± 8 µM
same,IC50,"recombinant VACV; HeLa, 24 h",220 ± 14 µM
same,IC50,"recombinant VACV; Jurkat, 24 h",354 ± 52 µM
same,IC50,"recombinant VACV; L929, 24 h",245 ± 18 µM
same,levels of VACV genomic DNA,VACV genomic DNA,not changed
same,IC50,WT VACV (WR); 24 h,587 ± 296 µM
same,IC50,"WT VACV (WR); BSC-40, 24 h",712 ± 444 µM
same,IC50,"WT VACV (WR); HeLa, 24 h",803 ± 273 µM
same,IC50,"WT VACV (WR); Jurkat, 24 h",492 ± 92 µM
same,IC50,"WT VACV (WR); L929, 24 h",702 ± 16 µM
same,CC50,"HeLa G cells; MTT, 2 days of incubation",Growth promotion
same,"inhibition of cell growth, MTT",HeLa G cells; up to 2 mM,not found to inhibit growth
same,CC50 at 2 days,"Cytotoxicity, MTT assay [3]",> 2000 µM
same,CC50,"BSC-40 cells; MTT, 2 days of incubation",Growth promotion
same,"inhibition of cell growth, MTT",BSC-40 cells; up to 2 mM,not found to inhibit growth
same,effect of pre-treatment on luciferase activity and virus titers (VACV entry),VACV,not found to cause any differences
same,"protein levels of luciferase, western blot",[7],gradual decrease
same,IC50,[1]; 24 h,305 ± 12 µM
same,IC50,"[1]; BSC-40, 24 h",642 ± 4 µM
same,IC50,"[1]; HeLa, 24 h",838 ± 159 µM
same,IC50,"[1]; L929, 24 h",747 ± 199 µM
same,size of plaques,WT VACV,reduced the size of plaques
same,cytotoxicity in conditions of the antiviral assays,[8],neither EA nor LA induced any obvious cytotoxicity
same,effect on activity of Luc E/L,[9],dose-dependent inhibitory effect
same,effect on activity of luciferase expressed by Luc E/L (early gene expression),[9],neither EA nor LA further decreased this measurable activity of luciferase
same,CC50,"L929 cells; MTT, 2 days of incubation",Growth promotion
same,"inhibition of cell growth, MTT",L929 cells; up to 2 mM,not found to inhibit growth
"OCCS [β-mercapthoethanol, β-mercaptoethanol]","luciferase activity, % of the mock-treated controls",[1],150%
